According to paper PMC12281475, “Mediator Kinase Inhibitor Selectivity and Activity in Colorectal Cancer” (ACS Chemical Biology, 2025):

System: COLO205 cells
Experiment: Phospho-proteome profiling (CDK-motif antibody enrichment, LC-MS/MS)
Assay type: cell-based, human
Details: 6 H
Text: We phospho-proteome profiled COLO205 cells to identify Mediator kinase substrates following chemical inhibition of Mediator kinase activity. Given the confirmed CDK8/19 selectivity of our compounds in binding and enzymatic activity assays, we employed a pool of antibodies selective for the proline-rich motifs phosphorylated by the CDK family to enrich potential CDK8/19 substrates for LC-MS/MS analysis.
Adherent COLO205 cells were lysed with a urea buffer, lysates were reduced with DTT, alkylated with iodoacetimide and digested with trypsin-tosylphenylalanyl chloromethyl ketone. Digested peptides were immunoprecipitated using a pool of motif antibodies from Cell Signaling Technologies (US) comprising: phospho-MAPK substrate (PXS*P or S*PXR/K, #2325, RRID:AB_331820), phospho-CDKs substrate ((K/H)-S*P, #2324; RRID:AB_2244779), phospho-PLK binding motif (ST*P, #5243; RRID:AB_10891778) and phospho-tPE motif (T*PE, #3004; RRID:AB_10890649)-of phospho-MAPK (2325), phospho-CDK (2324), phospho-PLK (5243) and phospho-tPE (C3004) motif-recognizing antibodies immobilized onto protein A/G beads. Immunoprecipitated peptides were analyzed using an LTQ-Orbitrap-Velos. Sequences were assigned to the MS/MS spectra and evaluated using SEQUEST 3G and SORCERER 2 (Sage-N Research v4.0, Milpitas). Quantitative data was evaluated and clustered in Spotfire Decision Site (www.spotfire.tibco.com) and normalized using quartile normalization. Functional annotation and pathway analysis used DAVID (https://david.ncifcrf.gov/). […]
Phospho-proteome analyses
Adherent COLO205 cells were washed with PBS and cells lysed using urea lysis buffer (9 M Urea, 20 mM HEPES, pH 8.0, 1 mM beta-glycerophosphate, 1 mM sodium vanadate, 2.5 mM sodium pyrophosphate) and stored at -80 °C prior to analysis. The supernatants were reduced with 100 mM DTT for 30 minutes at 55 °C, followed by alkylation with 50 mM iodoacetimide for 15 minutes at ambient temperature in the dark.
The samples were diluted in 20 mM HEPES, pH 8.0 and digested overnight with 10 ug/mL trypsin-tosylphenylalanyl chloromethyl ketone in 1 mM HCl. Digested peptides were acidified with 1% formic acid and then desalted over 360-mg SEP PAK C18 columns (Waters, UK). Peptides were eluted with 40% acetonitrile in 0.125% formic acid, dried under a vacuum and the lyophilised peptides used for immunoprecipitation.
A pool of motif antibodies from Cell Signaling Technologies (US) comprising: phospho-MAPK substrate (PXS*P or S*PXR/K, #2325, RRID:AB_331820), phospho-CDKs substrate ((K/H)S*P, #2324; RRID:AB_2244779), phospho-PLK binding motif (ST*P, […]
RRID:AB_10890649), were immobilised onto protein A/G beads overnight at 4 °C. The lyophilised peptides were resuspended in MOPS buffer (50 mM MOPS, pH 7.2, 10 mM KH2PO4, 50 mM NaCl) and centrifuged for 5 mins at 13,500 rpm in an Eppendorf benchtop microcentrifuge. The supernatants were incubated with the motif-bound beads for 2.5 hours at 4 °C . The beads were harvested by centrifugation at 4000 rpm in an Eppendorf benchtop microcentrifuge for 5 mins, washed with MOPS buffer twice and washed again 5 times with deionised water. The peptides were eluted off the beads using 0.125% formic acid, were desalted and dried under a vacuum. The lyophilised immunoprecipitated peptides were resuspended in 0.125% formic acid and separated on a capillary column packed with Magic C18 AQ reversed-phase resin.
Peptides were eluted using a 72-minute linear gradient of acetonitrile in 0.125% formic acid delivered at 280nL/min. Samples were analysed using an LTQ-Orbitrap-Velos.
MS Parameter Settings were: MS Run Time 96 min, MS1 Scan Range (300.0 – 1500.00), Top 20 MS/MS (Min Signal 500, Isolation Width 2.0, Normalized Coll.
Charge State Rejection Enabled, Charge State 1+ Rejected, Dynamic Exclusion Enabled, Repeat Count 1, Repeat Duration 35.0, Exclusion List Size 500, Exclusion Duration 40.0, Exclusion Mass Width Relative to Mass, Exclusion Mass Width 10ppm). […]

[1] = FAM122A peptide 69 - hglllpaSpvr - 79
[2] = FBLIM1 peptide 40 - grpweapapmkTpeaglagrpspwttpgr - 68
[3] = FBXW9 peptide 43 - sglafsrpsqlsTpaaSpSasepr - 66
[4] = FBXW9 peptide 48 - srpsqlStpaaSpsasepr - 66
[5] = FOSL1 peptide 235 - ftypStpepcasahr - 249
[6] = GATA6 peptide 26 - afparepStppSpisssssscsr - 48
[7] = GOLGA4 peptide 7 - qkiseeqqqlqqalapaqassnSStptrm#rsr - 39
[8] = HCFC1 peptide 1483 - avttvtqSTpvpgpsvpppeelqvSpgpr - 1511
[9] = HMCES peptide 152 - sgsigaadSpenwek - 166
[10] = HSPA12A peptide 99 - tpttillTper - 109
[11] = INCENP peptide 259 - iaqvSpgprdSpafpdSpwrer - 280
[12] = KANSL1 peptide 955 - ttpqlgSanpSTpqpaSpdvssshslseyShgqSpr - 989
[13] = KIAA1522 peptide 509/569 - rpprSper - 517/576
[14] = KLF6 peptide 140 - lsssvtStppsSpelsrepsqlwgcvpgelpSpgkvr - 176
[15] = KMT2A peptide 3025 - nssTpglqvpvsptvpiqnqk - 3045
[16] = L3MBTL2 peptide 60 - eagelpTSplhllSpgTpr - 78
[17] = LARP4B peptide 725 - rlSreqSTppkSpq - 738
[18] = LASP1 peptide 60 - qsftmvadTpenlr - 73
[19] = LCOR peptide 1212 - arpstkTpessaaqr - 1226
[20] = LIMD1 peptide 190 - wgdkpgvSpSiglsvgsgwpSspgsdpplpkpcgdhplnhr - 230
[21] = LMNA peptide 12 - sgaqaSstplSptr - 25
[22] = LMO7 peptide 595/929 - YngdvedikrTpnnvvSTpapSpdasqlasslssqk - 630/964
[23] = LSM14B peptide 85 - aqhtlpqdpaivqsslgsasaSpfqphvpYSpfr - 118
[24] = MAP7 peptide 668 - vtvesTpdlekqpnengvsvqnenfeeiinlpigskpsr - 706
[25] = MCM4 peptide 38 - rgedststgelqpmptSpgvdlqSpaaqdvl - 68

Cn1cc(-c2ccc(-c3cncc(Cl)c3N3CCC4(CCNC4=O)CC3)cc2)cn1 [CCT251545]
MEAN MS SIGNAL CMPD 1 6 H (EZH2 peptide 46 - grlpnnssrpstpTinvlesk - 376): 31995 | CMPD 1/DMSO [1]: 2.184 | MEAN MS SIGNAL CMPD 1 6 H [1]: 196079 | CMPD 1/DMSO [2]: 0.573 | MEAN MS SIGNAL CMPD 1 6 H [2]: 86595 | CMPD 1/DMSO [3]: 0.530 | MEAN MS SIGNAL CMPD 1 6 H [3]: 311610 | CMPD 1/DMSO [4]: 0.400 | MEAN MS SIGNAL CMPD 1 6 H [4]: 48006 | CMPD 1/DMSO [5]: 0.504 | MEAN MS SIGNAL CMPD 1 6 H [5]: 66830 | CMPD 1/DMSO [6]: 2.355 | MEAN MS SIGNAL CMPD 1 6 H [6]: 187382 | CMPD 1/DMSO [7]: 2.322 | MEAN MS SIGNAL CMPD 1 6 H [7]: 104624 | CMPD 1/DMSO [8]: 0.405 | MEAN MS SIGNAL CMPD 1 6 H [8]: 16700 | CMPD 1/DMSO [9]: 0.453 | MEAN MS SIGNAL CMPD 1 6 H [9]: 63819 | CMPD 1/DMSO [10]: 0.556 | MEAN MS SIGNAL CMPD 1 6 H [10]: 24367 | CMPD 1/DMSO [11]: 0.465 | MEAN MS SIGNAL CMPD 1 6 H [11]: 323217 | CMPD 1/DMSO [12]: 0.484 | MEAN MS SIGNAL CMPD 1 6 H [12]: 12101 | CMPD 1/DMSO [13]: 1.797 | MEAN MS SIGNAL CMPD 1 6 H [13]: 115710 | CMPD 1/DMSO [14]: 0.607 | MEAN MS SIGNAL CMPD 1 6 H [14]: 32118 | CMPD 1/DMSO [15]: 2.063 | MEAN MS SIGNAL CMPD 1 6 H [15]: 28229 | CMPD 1/DMSO [16]: 0.490 | MEAN MS SIGNAL CMPD 1 6 H [16]: 91427 | CMPD 1/DMSO [17]: 2.299 | MEAN MS SIGNAL CMPD 1 6 H [17]: 120169 | CMPD 1/DMSO [18]: 0.584 | MEAN MS SIGNAL CMPD 1 6 H [18]: 786663 | CMPD 1/DMSO [19]: 0.545 | MEAN MS SIGNAL CMPD 1 6 H [19]: 120796 | CMPD 1/DMSO [20]: 0.471 | MEAN MS SIGNAL CMPD 1 6 H [20]: 25519 | CMPD 1/DMSO [21]: 0.517 | MEAN MS SIGNAL CMPD 1 6 H [21]: 46469 | CMPD 1/DMSO [22]: 0.463 | MEAN MS SIGNAL CMPD 1 6 H [22]: 25654 | CMPD 1/DMSO [23]: 0.523 | MEAN MS SIGNAL CMPD 1 6 H [23]: 38083 | CMPD 1/DMSO [24]: 0.544 | MEAN MS SIGNAL CMPD 1 6 H [24]: 159179 | CMPD 1/DMSO [25]: 0.432 | MEAN MS SIGNAL CMPD 1 6 H [25]: 77526 | CMPD 1/DMSO (MCM4 peptide 69 - fSsppqmhssaipldfdvSsplTygtpssr - 98): 0.605
